The source of these data is US9585854B2, “N-acetyl-L-cysteine for use in in vitro fertilization” (IASOMAI AB, priority 2012, dated 2017).

Assay [1] has as its system pregnancy rates after IVF-ET. The following applies: cited from earlier work.
Assay [2] has as its system oxytocin antagonist; implantation after IVF. Particulars: cited from earlier work.
Assay [3] deals with embryo implantation. The assay is described as follows: embryo implantation in oxytocin-treated mice. The class given is in vivo. Particulars: mice given oxytocin. The source says: Indeed, in mice, NAC was confirmed to support embryo implantation. In the animal model, embryo implantation rate was decreased when the mice were given oxytocin.
In mice, NAC was confirmed to support embryo implantation. In the animal model, embryo implantation rate was decreased when the mice were given oxytocin.

For assay [4], the system named is RGD recognition sites on integrins. The following applies: cited from earlier work.
For assay [5], the system named is Isolated uteri from virgin Wistar rats. The assay is described as follows: isolated organ bath study of uterine contractions. Details: species or system rat. Here is the method: Animals were kept at 22° C., housed 3 per cage and fed ad libitum. Isolated uteri from virgin Wistar rats (200-280 g) in estrous, which was determined by examination of a daily vaginal smear, were used.
Protamine sulphate (PS) and NAC were dissolved in pure water.
All rats were sacrificed by cervical dislocation. The uterine horns were excised, carefully cleaned and mounted vertically in a 10 ml volume organ bath containing De Jalon's solution (NaCl 154 mM, KCl 5.6 mM, CaCl2×2H2O 0.41 mM, NaHCO 2 5.9 mM and glucose 2.8 mM), under 1 g tension, aerated with 95% oxygen and 5% carbon dioxide at 37° C. […] After 10 min increasing concentrations of PS were added until the total cessation of contractions was observed.
Myometrial tension was recorded isometrically with an organ bath and transducer.
Effects of treatments on uterine contractions were calculated as percentages for control, untreated and contracting conditions. Each data value is expressed as the mean±SEM. differences between groups were analyzed by two-way ANOVA. EC50 values were compared using one-way ANOVA

Like-named read-outs stand apart in the source and are kept apart here. Where a SMILES comes first, the peptide text is derived from it. Bridges are numbered along the chain shown (N, C = ends). [ ]: non-standard residue; d: D form. Orn = NCCC[C@H](N)C(=O)O; Mpa = O=C(O)CCS

As for `CC(=O)[C@H]1CC[C@H]2[C@@H]3CCC4=CC(=O)CC[C@]4(C)[C@H]3CC[C@]12C` [Progesterone], in assay [1], the “effect on pregnancy rates” value is listed as “no benefit”. With `CCOc1ccc(C[C@H]2NC(=O)CCSSC[C@@H](C(=O)N3CCC[C@H]3C(=O)N[C@@H](CCCN)C(=O)NCC(N)=O)NC(=O)[C@H](CC(N)=O)NC(=O)[C@H]([C@@H](C)O)NC(=O)[C@H]([C@@H](C)CC)NC2=O)cc1` [atosiban] ([Mpa][dY](Et)ITNCP[Orn]G-NH2; disulfide 1-6), in assay [2] (total i.v. dose 37.5 mg before and up to 2 h after embryo transfer, placebo 12.6%), the “Implantation rates per embryo transferred” value is on record as 20.4%. In addition, the early miscarriages in assay [2] (total i.v. dose 37.5 mg, placebo 24.4%) is 16.7%. Moreover, the “clinical pregnancy rates per cycle” value in assay [2] (total i.v. dose 37.5 mg, placebo 28.9%) was 46.7%. Take `CC[C@H](C)[C@@H]1NC(=O)[C@H](Cc2ccc(O)cc2)NC(=O)[C@@H](N)CSSC[C@@H](C(=O)N2CCC[C@H]2C(=O)N[C@@H](CC(C)C)C(=O)NCC(N)=O)NC(=O)[C@H](CC(N)=O)NC(=O)[C@H](CCC(N)=O)NC1=O` [oxytocin]: in assay [3], the embryo implantation rate result is reported as “decreased”. As for `CN1C(C(=O)Nc2ccccn2)=C(O)c2ccccc2S1(=O)=O` [piroxicam], in assay [1], the “effect on pregnancy rates” value is “positive effect”. With `CC(NCCc1ccc(O)cc1)C(O)c1ccc(O)cc1` (stereo not drawn) [ritodrine], the “effect on pregnancy rates” value in assay [1] is “positive effect”. With Arg-Gly-Asp (RGD) peptide [RGD peptide], the “rat blastocyst attachment to Ishikawa cells” value in assay [4] (either the blastocysts or the Ishikawa cells pre-incubated) is on record as “significant reduction in blastocyst attachment”; in assay [4] (pre-treatment of both blastocysts and Ishikawa cells), “inhibited blastocyst attachment, but not completely”. In the case of Protamine sulphate [PS], the “relaxation of uterine contractions” value in assay [5] (calcium ion-induced uterine contractions) and in assay [5] (spontaneously active uteri) was “dose-dependent relaxation” in each case. Also, the “EC50 for PS-treated uteri” value in assay [5] (spontaneously active vs calcium ion-induced uteri) was “lower in spontaneously active uteri than in calcium ion-induced uteri”.
